Reference: US12240844B2 (Voronoi, Inc., priority 2019, dated 2025)

What was measured:
Type in all cases: biochemical
[1] = target: T1, human GST-DYRK1A (full length) (Homo sapiens, UniProt Q13627); test: GST-DYRK1A enzyme inhibition, ADP-Glo kinase assay; conditions: read-out: DYRK1 IC50
T1 construct: purified human GST-DYRK1A (full length, Thermo scientifics) enzyme; GST; purchased Thermo scientifics
Summary of the method: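 Full-length human GST-DYRK1A (10 ng) incubated with 10 uM ATP and specific substrate for 1 h at 25° C in 40 mM Tris-HCl pH 7.4, 20 mM MgCl2, 0.5 mg/mL BSA, 50 uM DTT. ADP formation read by ADP-Glo luminescence; IC50 (nM) versus solvent control, triplicate.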

human GST-CLK1 (129-end) = target: T2, human GST-CLK1 (129-end) (Homo sapiens, UniProt P49759); test: GST-CLK1 enzyme inhibition, ADP-Glo kinase assay; conditions: ATP 10 uM
T2 construct: purified human GST-CLK1 (129-end, Signalchem) enzyme; GST; purchased Signalchem
Summary of the method: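 GST-CLK1 (129-end, 3 ng) reacted with 10 uM ATP and substrate in 40 mM Tris-HCl pH 7.4, 20 mM MgCl2, 0.5 mg/mL BSA, 50 uM DTT, 1 h at 25° C. ADP-Glo luminescence normalised to solvent control; IC50 from triplicate data.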

LRRK2 = LRRK2 (Homo sapiens, UniProt Q5S007); test: LRRK2 enzyme inhibition, ADP-Glo kinase assay; set-up: purchased Invitrogen PR8604B
Protocol: In order to evaluate the inhibitory activity of the compounds according to the present invention on LRRK2, LRRK2 (G2019S), DYRK1, CLK1 and TTK kinases, the following experiment was performed.
Example compounds were reacted with the purified human LRRK2 (Invitrogen #PR8604B) enzyme to evaluate the enzyme inhibitory ability as follows. The reaction buffer was used as the composition of 40 mM Tris-HCl pH7.4, 20 mM MgCl2, 0.5 mg/ml BSA and 50 μM DTT, and the reaction of all test materials was performed on the reaction buffer. The compound was diluted with 10 mM DMSO stock in 12 steps by a serial dilution method, and the enzyme activity was measured at the final compound concentrations of 50, 10, 2, 0.4, 0.08, 0.016, 0.0032, 0.00064, 0.000128, 0.0000256, 0.00000512 and 0.000001024 μM. In the test, the human LRRK2 (25 ng) enzyme was reacted with the purified ATP (10 μM) and an enzyme substrate ([…]) at 25° C. for 2 hours, and then the enzyme activity was identified using the in vitro ADP-Glo™ kinase assay (promega). The enzyme activity reaction liquid, an ADP-Glo reaction liquid and an enzyme potency detection solution were reacted in a ratio of 2:2:1, and the degree of inhibition of enzyme activity was measured by Luminescence. The degree of inhibition of enzyme activity according to the treatment concentrations of the respective compounds was calculated based on the fluorescence of the enzyme activity of a solvent control group that was not treated with the compound, where the concentration of each compound to inhibit enzyme activity inhibition by 50% was determined as an IC50 (nM) value and obtained using Prism (Version 5.01, GraphPad) software.
In the table below, the following designations were used for the evaluation of enzyme inhibitory ability.

LRRK2 (G2019S) = LRRK2 (G2019S) (Homo sapiens, UniProt Q5S007, G2019S); test: LRRK2 G2019S enzyme inhibition, ADP-Glo kinase assay; set-up: purchased SignalChem L10-12GG
Summary of the method: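 Purified human LRRK2 G2019S (16 ng) with 25 μM ATP and 0.2 μg substrate, 2 h at 25° C in 40 mM Tris-HCl pH 7.4, 20 mM MgCl2, 0.5 mg/ml BSA, 50 μM DTT; compound at 12 final concentrations from 50 μM downward. ADP-Glo luminescence versus solvent control gave IC50 (nM).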

T2 sequence (P49759 129-484 limits assumed): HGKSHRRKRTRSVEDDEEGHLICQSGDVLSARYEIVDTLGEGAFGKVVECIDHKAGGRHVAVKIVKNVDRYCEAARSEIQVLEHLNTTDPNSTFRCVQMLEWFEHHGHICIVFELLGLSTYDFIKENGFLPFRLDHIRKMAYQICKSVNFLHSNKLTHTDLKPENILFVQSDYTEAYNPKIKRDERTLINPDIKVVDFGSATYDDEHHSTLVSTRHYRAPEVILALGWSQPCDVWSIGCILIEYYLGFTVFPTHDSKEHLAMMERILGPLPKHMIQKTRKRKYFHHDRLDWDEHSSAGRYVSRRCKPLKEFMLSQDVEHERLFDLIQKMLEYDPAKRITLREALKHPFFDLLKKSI
Chain of LRRK2 (Q5S007 970-2527 limits assumed): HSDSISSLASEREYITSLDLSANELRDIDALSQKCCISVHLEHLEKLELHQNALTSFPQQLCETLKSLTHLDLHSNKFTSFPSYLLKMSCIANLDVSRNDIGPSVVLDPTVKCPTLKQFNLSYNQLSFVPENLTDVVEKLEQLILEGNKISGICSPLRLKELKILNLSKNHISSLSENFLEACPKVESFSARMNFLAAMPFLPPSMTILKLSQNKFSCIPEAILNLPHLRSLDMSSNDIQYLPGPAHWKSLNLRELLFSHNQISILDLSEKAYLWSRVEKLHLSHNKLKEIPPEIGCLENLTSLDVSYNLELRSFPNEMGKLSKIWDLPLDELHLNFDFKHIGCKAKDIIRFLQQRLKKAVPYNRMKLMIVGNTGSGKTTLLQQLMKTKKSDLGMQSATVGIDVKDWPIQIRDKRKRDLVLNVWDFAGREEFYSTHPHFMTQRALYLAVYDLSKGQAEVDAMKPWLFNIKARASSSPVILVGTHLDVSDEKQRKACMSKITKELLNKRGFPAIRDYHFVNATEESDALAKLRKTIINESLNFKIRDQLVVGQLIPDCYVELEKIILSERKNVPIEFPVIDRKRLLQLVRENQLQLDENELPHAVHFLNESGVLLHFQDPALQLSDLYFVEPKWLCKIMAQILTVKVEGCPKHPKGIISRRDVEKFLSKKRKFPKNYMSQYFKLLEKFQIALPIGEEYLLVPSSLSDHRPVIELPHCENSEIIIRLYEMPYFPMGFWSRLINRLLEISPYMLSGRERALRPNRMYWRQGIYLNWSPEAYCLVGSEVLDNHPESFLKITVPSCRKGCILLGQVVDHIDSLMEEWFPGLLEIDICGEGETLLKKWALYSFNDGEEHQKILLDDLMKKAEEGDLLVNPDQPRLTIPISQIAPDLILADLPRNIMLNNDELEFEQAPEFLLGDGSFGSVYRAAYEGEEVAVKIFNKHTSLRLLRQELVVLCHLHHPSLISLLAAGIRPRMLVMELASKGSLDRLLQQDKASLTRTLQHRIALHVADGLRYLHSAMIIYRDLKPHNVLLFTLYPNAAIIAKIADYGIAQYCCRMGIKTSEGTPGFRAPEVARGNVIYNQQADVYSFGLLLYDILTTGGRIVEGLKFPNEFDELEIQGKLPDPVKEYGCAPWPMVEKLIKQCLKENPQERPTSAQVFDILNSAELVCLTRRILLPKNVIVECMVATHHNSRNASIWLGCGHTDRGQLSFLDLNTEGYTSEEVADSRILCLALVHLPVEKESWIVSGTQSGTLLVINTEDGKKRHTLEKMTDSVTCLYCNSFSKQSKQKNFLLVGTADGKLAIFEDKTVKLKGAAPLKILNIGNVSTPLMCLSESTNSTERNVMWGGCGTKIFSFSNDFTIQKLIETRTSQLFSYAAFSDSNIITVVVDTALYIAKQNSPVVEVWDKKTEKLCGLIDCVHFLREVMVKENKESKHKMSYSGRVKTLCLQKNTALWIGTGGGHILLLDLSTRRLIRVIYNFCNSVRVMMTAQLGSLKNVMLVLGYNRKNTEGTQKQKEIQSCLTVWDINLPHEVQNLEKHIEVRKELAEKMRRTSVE
Chain of LRRK2 (G2019S) (Q5S007 970-2527 G2019S limits assumed): as the sequence (Q5S007 970-2527 limits assumed) above, with G1050S counted along it

SMILES | IC50 [1] | IC50 (human GST-CLK1 (129-end)) | IC50 (LRRK2) | IC50 (LRRK2 (G2019S))
CNc1cc(Nc2ccc(S(=O)(=O)N3CCOCC3)cc2OC)nc2[nH]cc(Cl)c12 [Example 64, 3-chloro-N^6-(2-methoxy-4-(morpholinosulfonyl)phenyl)-N^4-methyl-1H-pyrrolo[2,3-b]pyridine-4,6-diamine] | 301 to 1000 nM | 301 to 1000 nM | 301 to 1000 nM | 301 to 1000 nM
CCNc1cc(Nc2ccc(C(=O)N3CCOCC3)c3c2OCCO3)nc2[nH]cc(C#N)c12 [Example 107, 4-(ethylamino)-6-((8-(morpholine-4-carbonyl)-2,3-dihydrobenzo[b] [1,4]dioxin-5-yl)amino)-1H-pyrrolo[2,3-b]pyridine-3-carbonitrile] | 301 to 1000 nM | 301 to 1000 nM | < 100 nM | < 100 nM
O=C(c1ccc(Nc2cc(NC3CCCCC3)c3c(C(F)(F)F)c[nH]c3n2)c2c1OCCO2)N1CCOCC1 [Example 154, (8-((4-(cyclohexylamino)-3-(trifluoromethyl)-1H-pyrrolo[2,3-b]pyridin-6-yl)amino)-2,3-dihydrobenzo[b] [1,4]dioxin-5-yl)(morpholino) methanone] | 301 to 1000 nM | 301 to 1000 nM | 301 to 1000 nM | 301 to 1000 nM
CS(=O)(=O)CCNc1cc(Nc2ccc(C(=O)N3CCC(N4CCOCC4)CC3)c3c2OCCO3)nc2[nH]cc(C(F)(F)F)c12 [Example 165, (8-((4-((2-(methylsulfonyl)ethyl)amino)-3-(trifluoromethyl)-1H-pyrrolo[2,3-b]pyridin-6-yl)amino)-2,3-dihydrobenzo[b] [1,4]dioxin-5-yl)(4-morpholinopiperidin-1-yl)methanone] | < 100 nM | < 100 nM | < 100 nM | < 100 nM
CCNc1cc(Nc2ccc(C(=O)N3CCC(N4CCOCC4)CC3)c3c2OCCO3)nc2[nH]cc(C(F)(F)F)c12 [Example 161, (8-((4-(ethylamino)-3-(trifluoromethyl)-1H-pyrrolo[2,3-b]pyridin-6-yl)amino)-2,3-dihydrobenzo[b] [1,4]dioxin-5-yl)(4-morpholinopiperidin-1-yl)methanone] | 101 to 300 nM | < 100 nM | < 100 nM | < 100 nM
CCCNc1cc(Nc2ccc(S(C)(=O)=O)cc2OC)nc2[nH]cc(C#N)c12 [Example 125, 6-((2-methoxy-4-(methylsulfonyl)phenyl)amino)-4-(propylamino)-1H-pyrrolo[2,3-b]pyridine-3-carbonitrile] | 301 to 1000 nM | 301 to 1000 nM | < 100 nM | 101 to 300 nM
CNc1cc(Nc2ccc(C(=O)N3CCOCC3)c3c2OCC3)nc2[nH]cc(C(F)(F)F)c12 [Example 52, (7-((4-(methylamino)-3-(trifluoromethyl)-1H-pyrrolo[2,3-b]pyridin-6-yl)amino)-2,3-dihydrobenzofuran-4-yl)(morpholino) methanone] | < 100 nM | < 100 nM | < 100 nM | < 100 nM
N#Cc1c[nH]c2nc(Nc3ccc(C(=O)N4CCC(N5CCOCC5)CC4)c4c3OCCO4)cc(NC3CC3)c12 [Example 116, 4-(cyclopropylamino)-6-((8-(4-morpholinopiperidine-1-carbonyl)-2,3-dihydrobenzo [b] [1,4]dioxin-5-yl)amino)-1H-pyrrolo[2,3-b]pyridine-3-carbonitrile] | 301 to 1000 nM | 101 to 300 nM | < 100 nM | < 100 nM
CNc1cc(Nc2ccc(S(C)(=O)=O)cc2OC)nc2[nH]cc(C#N)c12 [Example 123] | 301 to 1000 nM | 301 to 1000 nM | < 100 nM | < 100 nM
CNc1cc(Nc2ccc(C(=O)N3CCC(N4CCOCC4)CC3)c3c2OCCO3)nc2[nH]cc(C#N)c12 [Example 115, 4-(methylamino)-6-((8-(4-morpholinopiperidine-1-carbonyl)-2,3-dihydrobenzo[b] [1,4]dioxin-5-yl)amino)-1H-pyrrolo[2,3-b]pyridine-3-carbonitrile] | 101 to 300 nM | 101 to 300 nM | < 100 nM | < 100 nM
CCCNc1cc(Nc2ccc(C(=O)N3CCOCC3)c3c2OCCO3)nc2[nH]cc(C#N)c12 [Example 108, 6-((8-(morpholine-4-carbonyl)-2,3-dihydrobenzo[b] [1,4]dioxin-5-yl)amino)-4-(propylamino)-1H-pyrrolo[2,3-b]pyridine-3-carbonitrile] | 301 to 1000 nM | 301 to 1000 nM | < 100 nM | < 100 nM

Next, values leading:

IC50 [1] | IC50 (human GST-CLK1 (129-end)) | IC50 (LRRK2) | IC50 (LRRK2 (G2019S)) | SMILES
301 to 1000 nM | 301 to 1000 nM | 301 to 1000 nM | 301 to 1000 nM | COc1cc(S(C)(=O)=O)ccc1Nc1cc(NC2CCCCC2)c2c(C(F)(F)F)c[nH]c2n1 [Example 182, N^4-cyclohexyl-N^6-(2-methoxy-4-(methylsulfonyl)phenyl)-3-(trifluoromethyl)-1H-pyrrolo[2,3-b]pyridine-4,6-diamine]
101 to 300 nM | < 100 nM | < 100 nM | < 100 nM | CCNc1cc(Nc2ccc(P(C)(=O)N3CCC(N4CCOCC4)CC3)cc2OC)nc2[nH]cc(C(F)(F)F)c12 (stereo not shown) [Example 208, (4-((4-(ethylamino)-3-(trifluoromethyl)-1H-pyrrolo[2,3-b]pyridin-6-yl)amino)-3-methoxyphenyl) (methyl)(4-morpholinopiperidin-1-yl)phosphine oxide]
301 to 1000 nM | 301 to 1000 nM | 301 to 1000 nM | 301 to 1000 nM | COc1cc(S(C)(=O)=O)ccc1Nc1cc(NCC(C)C)c2c(C(F)(F)F)c[nH]c2n1 [Example 190, N^4-isobutyl-N^6-(2-methoxy-4-(methylsulfonyl)phenyl)-3-(trifluoromethyl)-1H-pyrrolo[2,3-b]pyridine-4,6-diamine]
101 to 300 nM | 301 to 1000 nM | < 100 nM | < 100 nM | CCNc1cc(Nc2ccc(P(C)(C)=O)cc2OC)nc2[nH]cc(C(F)(F)F)c12 [Example 209, (4-((4-(ethylamino)-3-(trifluoromethyl)-1H-pyrrolo[2,3-b]pyridin-6-yl)amino)-3-methoxyphenyl) dimethylphosphine oxide]
301 to 1000 nM | 301 to 1000 nM | 301 to 1000 nM | 301 to 1000 nM | CNc1cc(Nc2ccc(S(=O)(=O)N3CCOCC3)cc2OC)nc2[nH]cc(C(F)(F)F)c12 [Example 177, N^6-(2-methoxy-4-(morpholinosulfonyl)phenyl)-N^4-methyl-3-(trifluoromethyl)-1H-pyrrolo[2,3-b]pyridine-4,6-diamine]
< 100 nM | 301 to 1000 nM | 301 to 1000 nM | 301 to 1000 nM | CNc1cc(Nc2ccc(S(C)(=O)=O)cc2OC)nc2[nH]cc(C(F)(F)F)c12 [Example 178, N^6-(2-methoxy-4-(methylsulfonyl)phenyl)-N^4-methyl-3-(trifluoromethyl)-1H-pyrrolo[2,3-b]pyridine-4,6-diamine]
< 100 nM | < 100 nM | < 100 nM | 101 to 300 nM | CCNc1cc(Nc2ccc(C(=O)N3CCOCC3)c3c2OCO3)nc2[nH]cc(C(F)(F)F)c12 [Example 236, (7-((4-(ethylamino)-3-(trifluoromethyl)-1H-pyrrolo[2,3-b]pyridin-6-yl)amino)benzo[d][1,3]dioxol-4-yl)(morpholino) methanone]
301 to 1000 nM | 301 to 1000 nM | 301 to 1000 nM | 301 to 1000 nM | CCCNc1cc(Nc2ccc(S(C)(=O)=O)cc2OC)nc2[nH]cc(C(F)(F)F)c12 [Example 200, N^6-(2-methoxy-4-(methylsulfonyl)phenyl)-N^4-propyl-3-(trifluoromethyl)-1H-pyrrolo[2,3-b]pyridine-4,6-diamine]
